Earlier results in patent publication US9854827B2, “Sweetener” (Tate & Lyle Ingredients Americas LLC, priority 2013, dated 2018).

Settings: % of the sweetness of sucrose

SMILES: O=C(CO)C(O)C(O)C(O)CO (stereo not shown) [Allulose, allulose]
- sweetness relative to sucrose: around 70%
